biological target: T1, Purified recombinant NBD1 (Homo sapiens, UniProt P13569); assay: Aggregation analysis using differential static light scattering (DSLS): thermal stability of NBD1; assay type: binding; conditions: NBD1 0.2 mg/ml; Tagg of compound well minus average Tagg of DMSO control wells
T1 construct: Purified recombinant NBD1 was produced using previously described methods; made in house
Method: Purified recombinant NBD1 was produced using previously described methods (A. Schmidt, J. L. Mendoza, P. J. Thomas (2011) Biochemical and Biophysical Approaches to Probe CFTR Structure (365-376) M. D. Amaral, K. Kunzelmann (eds.), Cystic Fibrosis, Methods in Molecular Biology 741, Springer Science+Business Media). The effect of test compounds on thermal stability of NBD1 was evaluated by differential static light scattering (DSLS) using the Harbinger Stargazer-384 instrument (Epiphyte Three, Toronto, Canada). Test compounds were dissolved and diluted to desired concentrations in 100% DMSO. The compounds or DMSO controls (100 nL) were stamped into wells of a […] low volume optical plate (Corning Inc., Corning, NY) using the Echo 555 acoustic liquid handler (Labcyte Inc., San Jose, CA).
NBD1 protein was diluted to 0.2 mg/ml in S200 buffer (50 mM Tris-HCl, 150 mM NaCl, 5 mM MgCl2, 2 mM ATP, 2 mM DTT, pH7.6) containing 1% glycerol. 10 uL of protein solution was aliquoted into the 384-well plate harboring the test compounds and 10 uL mineral oil was overlaid onto the protein solution, using the epMotion robotic liquid handler (Eppendorf North America, Hauppauge, NY). After placing into the Stargazer instrument, the plate was heated at 1° C. per minute to 70° C. Images were captured from 25° C. to 70° C. every 0.5° C. At the end of the experiment run, instrument software integrated image files and analyzed data automatically. A […] regression curve was generated for each well, representing the increase in light scattering over time. A temperature of aggregation (Tagg) was calculated based on the inflection point of the curve. To better compare data across experiments the average Tagg for DMSO control wells was calculated and subtracted from values for wells containing compounds to obtain a “ΔTagg” value. These ΔTagg values reflect stabilizing efficacy of the compounds. As set forth in Table 2 below, an ΔTagg value less than or equal to 5° C. is marked “A”; a value above 5° C. and less than or equal to 10° C. is marked “B”; a value greater than 10° C. and less than or equal to 25° C. is marked “C”.

T1 sequence (P13569 423-646 limits assumed): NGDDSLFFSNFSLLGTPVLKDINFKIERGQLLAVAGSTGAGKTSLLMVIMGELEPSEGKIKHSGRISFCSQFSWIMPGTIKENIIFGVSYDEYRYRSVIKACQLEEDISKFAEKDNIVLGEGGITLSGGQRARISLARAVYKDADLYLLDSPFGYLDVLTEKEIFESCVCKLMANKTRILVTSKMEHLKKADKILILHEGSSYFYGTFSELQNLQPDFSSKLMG

Compound	DSLS (ΔTagg)
CN1CC(C)(C)COCC(C)(c2cccc(CCC(=O)O)c2)c2cnc([nH]2)-c2cc(ccc2F)Oc2c(F)cc3[nH]ccc3c2CCC1=O (racemic) [Compound 20A, 3-[3-(23,29-Difluoro-6,10,10,12-tetramethyl-13-oxo-8,25-dioxa-3,12,20,31-tetrazapentacyclo[24.3.1.12,5.016,24.017,21]hentriaconta-1(30),2,4,16,18,21,23,26,28-nonaen-6-yl)phenyl]propanoic acid]	C (a value greater than 10 °C and less than or equal to 25 °C is marked “C”)
CCOC(=O)CCc1cccc(C2(C)CCCC(C)(C)CN(C)C(=O)CCc3c(c(F)cc4[nH]ccc34)Oc3ccc(F)c(c3)-c3ncc2[nH]3)c1 (single isomer, unassigned) [Compound 48A, ethyl 3-[3-(23,29-difluoro-6,10,10,12-tetramethyl-13-oxo-25-oxa-3,12,20,31-tetrazapentacyclo-[24.3.1.12,5.016,24.017,21]hentriaconta-1(30),2,4,16,18,21,23,26,28-nonaen-6-yl)phenyl]propanoate]	A (an ΔTagg value less than or equal to 5 °C is marked “A”)
CCOC(=O)CCc1cccc(C2(C)CCCC(C)(C)CN(C)C(=O)CCc3c(c(F)cc4[nH]ccc34)Oc3ccc(F)c(c3)-c3ncc2[nH]3)c1 (single isomer, unassigned) [Compound 48B, ethyl 3-[3-(23,29-difluoro-6,10,10,12-tetramethyl-13-oxo-25-oxa-3,12,20,31-tetrazapentacyclo-[24.3.1.12,5.016,24.017,21]hentriaconta-1(30),2,4,16,18,21,23,26,28-nonaen-6-yl)phenyl]propanoate]	A (an ΔTagg value less than or equal to 5 °C is marked “A”)
O=C(O)CCc1cccc(C2CCCCCNC(=O)CCc3c(c(F)cc4[nH]ccc34)Oc3ccc(F)c(c3)-c3ncc2[nH]3)c1 (stereo not shown) [Compound 1, 3-[3-(23,29-difluoro-13-oxo-25-oxa-3,12,20,31-tetrazapentacyclo[24.3.1.12,5.016,24.017,21]hentriaconta-1(30),2,4,16,18,21,23,26,28-nonaen-6-yl)phenyl]propanoic acid]	B (a value above 5 °C and less than or equal to 10 °C is marked “B”)
O=C1CCc2c(c(F)cc3[nH]ccc23)Oc2ccc(F)c(c2)-c2ncc([nH]2)C(c2ccccc2)CCCCCN1 (stereo not shown) [Compound 2, 23,29-Difluoro-6-phenyl-25-oxa-3,12,20,31-tetrazapentacyclo[24.3.1.12,5.016,24.017,21]hentriaconta-1(30),2,4,16,18,21,23,26,28-nonaen-13-one]	C (a value greater than 10 °C and less than or equal to 25 °C is marked “C”)
O=C(O)CCc1cccc(C2CCCCCCNC(=O)CCc3c(c(F)cc4[nH]cnc34)Oc3ccc(F)c(c3)-c3ncc2[nH]3)c1 (stereo not shown) [Compound 5, 3-[3-(24,30-Difluoro-14-oxo-26-oxa-3,13,19,21,32-pentazapentacyclo-[25.3.1.12,5.017,25.018,22]dotriaconta-1(31),2,4,17,19,22,24,27,29-nonaen-6-yl)phenyl]propanoic acid]	B (a value above 5 °C and less than or equal to 10 °C is marked “B”)
O=C(O)CCc1cccc(C2CCCCCCNC(=O)Cc3c(c(F)cc4[nH]ccc34)Oc3ccc(F)c(c3)-c3ncc2[nH]3)c1 (stereo not shown) [Compound 6, 3-[3-(23,29-Difluoro-14-oxo-25-oxa-3,13,20,31-tetrazapentacyclo-[24.3.1.12,5.016,24.017,21]hentriaconta-1(30),2,4,16,18,21,23,26,28-nonaen-6-yl)phenyl]propanoic acid]	C (a value greater than 10 °C and less than or equal to 25 °C is marked “C”)
CC(Cc1cccc(C2CCCCCNC(=O)CCc3c(c(F)cc4[nH]ccc34)Oc3ccc(F)c(c3)-c3ncc2[nH]3)c1)C(=O)O (stereo not shown) [Compound 7, 3-[3-(23,29-Difluoro-13-oxo-25-oxa-3,12,20,31-tetrazapentacyclo-[24.3.1.12,5.016,24.017,21]hentriaconta-1(30),2,4,16,18,21,23,26,28-nonaen-6-yl)phenyl]-2-methyl-propanoic acid]	C (a value greater than 10 °C and less than or equal to 25 °C is marked “C”)
CN1Cc2c(c(F)cc3[nH]ccc23)Oc2ccc(F)c(c2)-c2ncc([nH]2)C(c2cccc(CCC(=O)O)c2)CCCCCCC1=O (stereo not shown) [Compound 9, 3-[3-(23,29-Difluoro-14-methyl-13-oxo-25-oxa-3,14,20,31-tetrazapentacyclo[24.3.1.12,5.016,24.017,21]hentriaconta-1(30),2,4,16(24),17(21),18,22,26,28-nonaen-6-yl)phenyl]propanoic acid]	C (a value greater than 10 °C and less than or equal to 25 °C is marked “C”)
O=C(O)CCc1cccc(C2CCCC(=O)NCCCc3c(c(F)cc4[nH]ccc34)Oc3ccc(F)c(c3)-c3ncc2[nH]3)c1 (stereo not shown) [Compound 11, 3-[3-(22,28-Difluoro-10-oxo-24-oxa-3,11,19,30-tetrazapentacyclo[23.3.1.12,5.015,23.016,20]triaconta-1(28),2,4,15(23),16(20),17,21,25(29),26-nonaen-6-yl)phenyl]propanoic acid]	C (a value greater than 10 °C and less than or equal to 25 °C is marked “C”)
CC1(C)CCCC(C)(c2cccc(CCC(=O)O)c2)c2cnc([nH]2)-c2cc(ccc2F)Oc2c(F)cc3[nH]ccc3c2CCC(=O)NC1 (stereo not shown) [Compound 12, 3-[3-(23,29-Difluoro-6,10,10-trimethyl-13-oxo-25-oxa-3,12,20,31-tetrazapentacyclo[24.3.1.12,5.016,24.017,21]hentriaconta-1(30),2,4,16,18,21,23,26,28-nonaen-6-yl)phenyl]propanoic acid]	C (a value greater than 10 °C and less than or equal to 25 °C is marked “C”)
O=C1CCc2c(c(F)cc3[nH]ccc23)Oc2ccc(F)c(c2)-c2ncc([nH]2)C(c2ccccc2)CCCCS(=O)(=O)N1 (stereo not shown) [Compound 13, 23,29-Difluoro-11,11-dioxo-6-phenyl-25-oxa-116-thia-3,12,20,31-tetrazapentacyclo[24.3.1.12,5.016,24.017,21]hentriaconta-1(30),2,4,16,18,21,23,26,28-nonaen-13-one]	C (a value greater than 10 °C and less than or equal to 25 °C is marked “C”)
CN1Cc2c(c(F)cc3[nH]ccc23)Oc2ccc(F)c(c2)-c2ncc([nH]2)C(C)(c2cccc(CCC(=O)O)c2)CCCCCCC1=O (stereo not shown) [Compound 14, 3-[3-(23,29-Difluoro-6,14-dimethyl-13-oxo-25-oxa-3,14,20,31-tetrazapentacyclo[24.3.1.12,5.016,24.017,21]hentriaconta-1(30),2,4,16(24),17(21),18,22,26,28-nonaen-6-yl)phenyl]propanoic acid]	C (a value greater than 10 °C and less than or equal to 25 °C is marked “C”)
O=C(O)CCc1cccc(C2CCC(F)(F)CNC(=O)CCc3c(c(F)cc4[nH]ccc34)Oc3ccc(F)c(c3)-c3ncc2[nH]3)c1 (stereo not shown) [Compound 15, 3-[3-(9,9,22,28-Tetrafluoro-12-oxo-24-oxa-3,11,19,30-tetrazapentacyclo[23.3.1.12,5.015,23.016,20]triaconta-1(28),2,4,15(23),16(20),17,21,25(29),26-nonaen-6-yl)phenyl]propanoic acid]	C (a value greater than 10 °C and less than or equal to 25 °C is marked “C”)
CC1(c2cccc(CCC(=O)O)c2)CCCCC(=O)NCCc2c(c(F)cc3[nH]ccc23)Oc2ccc(F)c(c2)-c2ncc1[nH]2 (stereo not shown) [Compound 16, 3-[3-(22,28-Difluoro-6-methyl-11-oxo-24-oxa-3,12,19,30-tetrazapentacyclo[23.3.1.12,5.015,23.016,20]triaconta-1(29),2,4,15,17,20,22,25,27-nonaen-6-yl)phenyl]propanoic acid]	C (a value greater than 10 °C and less than or equal to 25 °C is marked “C”)
CC1(c2cccc(CCC(=O)O)c2)CCCC(=O)NCCCc2c(c(F)cc3[nH]ccc23)Oc2ccc(F)c(c2)-c2ncc1[nH]2 (stereo not shown) [Compound 17, 3-[3-(22,28-Difluoro-6-methyl-10-oxo-24-oxa-3,11,19,30-tetrazapentacyclo[23.3.1.12,5.015,23.016,20]triaconta-1(29),2,4,15,17,20,22,25,27-nonaen-6-yl)phenyl]propanoic acid]	C (a value greater than 10 °C and less than or equal to 25 °C is marked “C”)

Source: patent publication US20250197420A1, “MACROCYCLIC COMPOUNDS, COMPOSITIONS, AND METHODS OF USING THEREOF” (Sionna Therapeutics Inc., priority 2022, published 2025)
